Activity calls are given as the source filed them. The calls are words filed in the database; no cut-off is given here.
Legend:
[1] = Ratio of doxorubicin IC50 for cytotoxicity against HEK293T cells in absence of test compound to doxorubicin IC50 for HEK293T cells expressing ABCB1 in presence of 20 uM test compound; type: functional, Homo sapiens
HEK-293T [2] = assay: Potentiation of doxorubicin-induced cytotoxicity against HEK293T cells assessed as change in doxorubicin IC50 at 10 uM after 72 hrs by MTT assay relative to control; type: cell-based; settings: human
[3] = Ratio of cisplatin IC50 for cytotoxicity against HEK293T cells in absence of test compound to cisplatin IC50 for HEK293T cells expressing ABCB1 in presence of 20 uM test compound; type: functional, Homo sapiens
[4] = biological target: T1, ATP-dependent translocase ABCB1 (Homo sapiens, UniProt P08183); assay: Inhibition of ABCB1 (unknown origin) expressed in HEK293T cells assessed as potentiation of doxorubicin-induced cytotoxicity after 72 hrs by MTT assay; type: cell-based
[5] = Ratio of cisplatin IC50 for cytotoxicity against human SW620 cells in absence of test compound to cisplatin IC50 for human SW620/Ad300 cells in presence to 20 uM test compound; type: functional
SW-620 [6] = assay: Cytotoxicity against human SW620 cells assessed as decrease in cell survival after 72 hrs by MTT assay; type: cell-based; settings: SW-620, 72 h
SW620/AD300 [7] = assay: Effect on expression of ABCB1 protein in human SW620/Ad300 cells at 20 uM after 24 to 96 hrs by Western blot method; type: functional, cell-based
A549 = assay: Cytotoxicity against human A549 cells assessed as decrease in cell survival at 10 to 20 uM after 72 hrs by MTT assay; type: cell-based; settings: a549, 72 h
HEK-293T [8] = assay: Potentiation of doxorubicin-induced cytotoxicity against HEK293T cells assessed as change in doxorubicin IC50 at 4 uM after 72 hrs by MTT assay relative to control; type: cell-based; settings: human
[9] = biological target: T1, ATP-dependent translocase ABCB1; assay: Inhibition of ABCB1 in human SW620/Ad300 cells assessed as potentiation of doxorubicin-induced cytotoxicity after 72 hrs by MTT assay; type: cell-based
HEK-293T [10] = assay: Potentiation of cisplatin-induced cytotoxicity against HEK293T cells assessed as change in cisplatin IC50 at 4 uM after 72 hrs by MTT assay relative to control; type: cell-based; settings: human
SW620/AD300 [11] = assay: Cytotoxicity against human SW620/AD300 cells assessed as decrease in cell survival after 72 hrs by MTT assay; type: cell-based; settings: SW620/AD300, 72 h
SGC-7901 = assay: Cytotoxicity against human SGC7901 cells assessed as decrease in cell survival at 10 to 20 uM after 72 hrs by MTT assay; type: cell-based; settings: sgc-7901, 72 h
[12] = Ratio of doxorubicin IC50 for cytotoxicity against human SW620 cells in absence of test compound to doxorubicin IC50 for human SW620/Ad300 cells in presence to 10 uM test compound; type: functional
[13] = Ratio of doxorubicin IC50 for cytotoxicity against HEK293T cells in absence of test compound to doxorubicin IC50 for HEK293T cells expressing ABCB1 in presence of 10 uM test compound; type: functional, Homo sapiens
[14] = Ratio of paclitaxel IC50 for cytotoxicity against human SW620 cells in absence of test compound to paclitaxel IC50 for human SW620/Ad300 cells in presence to 10 uM test compound; type: functional
[15] = Ratio of paclitaxel IC50 for cytotoxicity against human SW620 cells in absence of test compound to paclitaxel IC50 for human SW620/Ad300 cells in presence to 4 uM test compound; type: functional
[16] = biological target: T1, ATP-dependent translocase ABCB1; assay: Stabilization of ABCB1 in human SW620/Ad300 cells at 10 uM after 30 mins by cellular thermal shift assay; type: cell-based; settings: 0.5 h
HEK-293T [17] = assay: Potentiation of cisplatin-induced cytotoxicity against HEK293T cells assessed as change in cisplatin IC50 at 20 uM after 72 hrs by MTT assay relative to control; type: cell-based; settings: human
SW-620 [18] = assay: Potentiation of cisplatin-induced cytotoxicity against human SW620 cells assessed as change in cisplatin IC50 at 4 uM after 72 hrs by MTT assay relative to control; type: cell-based; settings: sw-620, 72 h
MGC-803 = assay: Cytotoxicity against human MGC803 cells assessed as decrease in cell survival at 10 to 20 uM after 72 hrs by MTT assay; type: cell-based; settings: mgc-803, 72 h
[19] = Ratio of paclitaxel IC50 for cytotoxicity against human SW620 cells in absence of test compound to paclitaxel IC50 for human SW620/Ad300 cells in presence to 20 uM test compound; type: functional
[20] = Ratio of doxorubicin IC50 for cytotoxicity against HEK293T cells in absence of test compound to doxorubicin IC50 for HEK293T cells expressing ABCB1 in presence of 4 uM test compound; type: functional, Homo sapiens
[21] = Ratio of doxorubicin IC50 for cytotoxicity against human SW620 cells in absence of test compound to doxorubicin IC50 for human SW620/Ad300 cells in presence to 4 uM test compound; type: functional
[22] = Ratio of paclitaxel IC50 for cytotoxicity against HEK293T cells in absence of test compound to paclitaxel IC50 for HEK293T cells expressing ABCB1 in presence of 10 uM test compound; type: functional, Homo sapiens
HEK-293T [23] = assay: Potentiation of paclitaxel-induced cytotoxicity against HEK293T cells assessed as change in paclitaxel IC50 at 20 uM after 72 hrs by MTT assay relative to control; type: cell-based; settings: human
[24] = Ratio of cisplatin IC50 for cytotoxicity against HEK293T cells in absence of test compound to cisplatin IC50 for HEK293T cells expressing ABCB1 in presence of 10 uM test compound; type: functional, Homo sapiens
SW-620 [25] = assay: Potentiation of paclitaxel-induced cytotoxicity against human SW620 cells assessed as change in paclitaxel IC50 at 10 uM after 72 hrs by MTT assay relative to control; type: cell-based; settings: sw-620, 72 h
[26] = Ratio of paclitaxel IC50 for cytotoxicity against HEK293T cells in absence of test compound to paclitaxel IC50 for HEK293T cells expressing ABCB1 in presence of 20 uM test compound; type: functional, Homo sapiens
[27] = Ratio of paclitaxel IC50 for cytotoxicity against HEK293T cells in absence of test compound to paclitaxel IC50 for HEK293T cells expressing ABCB1 in presence of 4 uM test compound; type: functional, Homo sapiens
[28] = Ratio of cisplatin IC50 for cytotoxicity against human SW620 cells in absence of test compound to cisplatin IC50 for human SW620/Ad300 cells in presence to 4 uM test compound; type: functional
[29] = Ratio of doxorubicin IC50 for cytotoxicity against human SW620 cells in absence of test compound to doxorubicin IC50 for human SW620/Ad300 cells in presence to 20 uM test compound; type: functional
[30] = biological target: T1, ATP-dependent translocase ABCB1; assay: Inhibition of ABCB1 in human SW620/Ad300 cells assessed as potentiation of paclitaxel-induced cytotoxicity after 72 hrs by MTT assay; type: cell-based
ECa-109 cell line = assay: Cytotoxicity against human EC109 cells assessed as decrease in cell survival at 10 to 20 uM after 72 hrs by MTT assay; type: cell-based; settings: eca-109, 72 h
HEK-293T [31] = assay: Potentiation of doxorubicin-induced cytotoxicity against HEK293T cells assessed as change in doxorubicin IC50 at 20 uM after 72 hrs by MTT assay relative to control; type: cell-based; settings: human
SW-620 [32] = assay: Potentiation of doxorubicin-induced cytotoxicity against human SW620 cells assessed as change in doxorubicin IC50 at 20 uM after 72 hrs by MTT assay relative to control; type: cell-based; settings: sw-620, 72 h
SW-620 [33] = assay: Potentiation of paclitaxel-induced cytotoxicity against human SW620 cells assessed as change in paclitaxel IC50 at 4 uM after 72 hrs by MTT assay relative to control; type: cell-based; settings: sw-620, 72 h
SW-620 [34] = assay: Potentiation of paclitaxel-induced cytotoxicity against human SW620 cells assessed as change in paclitaxel IC50 at 20 uM after 72 hrs by MTT assay relative to control; type: cell-based; settings: sw-620, 72 h
HEK-293T [35] = assay: Potentiation of cisplatin-induced cytotoxicity against HEK293T cells assessed as change in cisplatin IC50 at 10 uM after 72 hrs by MTT assay relative to control; type: cell-based; settings: human
SW-620 [36] = assay: Potentiation of doxorubicin-induced cytotoxicity against human SW620 cells assessed as change in doxorubicin IC50 at 10 uM after 72 hrs by MTT assay relative to control; type: cell-based; settings: sw-620, 72 h
[37] = Ratio of cisplatin IC50 for cytotoxicity against human SW620 cells in absence of test compound to cisplatin IC50 for human SW620/Ad300 cells in presence to 10 uM test compound; type: functional
SW620/AD300 [38] = assay: Effect on expression of ABCB1 protein in human SW620/Ad300 cells at 10 to 20 uM by Western blot method; type: functional, cell-based
[39] = biological target: T1, ATP-dependent translocase ABCB1; assay: Inhibition of ABCB1 in human SW620/Ad300 cells assessed as increase in intracellular paclitaxel accumulation at 10 to 20 uM preincubated for 72 hrs followed by paclitaxel addition and measured after 3 hrs by UPLC method; type: cell-based
SW-620 [40] = assay: Potentiation of cisplatin-induced cytotoxicity against human SW620 cells assessed as change in cisplatin IC50 at 10 uM after 72 hrs by MTT assay relative to control; type: cell-based; settings: sw-620, 72 h
HEK-293T [41] = assay: Potentiation of paclitaxel-induced cytotoxicity against HEK293T cells assessed as change in paclitaxel IC50 at 10 uM after 72 hrs by MTT assay relative to control; type: cell-based; settings: human
HEK-293T [42] = assay: Potentiation of paclitaxel-induced cytotoxicity against HEK293T cells assessed as change in paclitaxel IC50 at 4 uM after 72 hrs by MTT assay relative to control; type: cell-based; settings: human
TE-1 = assay: Cytotoxicity against human TE1 cells assessed as decrease in cell survival at 10 to 20 uM after 72 hrs by MTT assay; type: cell-based; settings: te-1, 72 h
SW-620 [43] = assay: Potentiation of cisplatin-induced cytotoxicity against human SW620 cells assessed as change in cisplatin IC50 at 20 uM after 72 hrs by MTT assay relative to control; type: cell-based; settings: sw-620, 72 h
SW-620 [44] = assay: Potentiation of doxorubicin-induced cytotoxicity against human SW620 cells assessed as change in doxorubicin IC50 at 4 uM after 72 hrs by MTT assay relative to control; type: cell-based; settings: sw-620, 72 h
[45] = Ratio of cisplatin IC50 for cytotoxicity against HEK293T cells in absence of test compound to cisplatin IC50 for HEK293T cells expressing ABCB1 in presence of 4 uM test compound; type: functional, Homo sapiens

T1 sequence (P08183 whole entry): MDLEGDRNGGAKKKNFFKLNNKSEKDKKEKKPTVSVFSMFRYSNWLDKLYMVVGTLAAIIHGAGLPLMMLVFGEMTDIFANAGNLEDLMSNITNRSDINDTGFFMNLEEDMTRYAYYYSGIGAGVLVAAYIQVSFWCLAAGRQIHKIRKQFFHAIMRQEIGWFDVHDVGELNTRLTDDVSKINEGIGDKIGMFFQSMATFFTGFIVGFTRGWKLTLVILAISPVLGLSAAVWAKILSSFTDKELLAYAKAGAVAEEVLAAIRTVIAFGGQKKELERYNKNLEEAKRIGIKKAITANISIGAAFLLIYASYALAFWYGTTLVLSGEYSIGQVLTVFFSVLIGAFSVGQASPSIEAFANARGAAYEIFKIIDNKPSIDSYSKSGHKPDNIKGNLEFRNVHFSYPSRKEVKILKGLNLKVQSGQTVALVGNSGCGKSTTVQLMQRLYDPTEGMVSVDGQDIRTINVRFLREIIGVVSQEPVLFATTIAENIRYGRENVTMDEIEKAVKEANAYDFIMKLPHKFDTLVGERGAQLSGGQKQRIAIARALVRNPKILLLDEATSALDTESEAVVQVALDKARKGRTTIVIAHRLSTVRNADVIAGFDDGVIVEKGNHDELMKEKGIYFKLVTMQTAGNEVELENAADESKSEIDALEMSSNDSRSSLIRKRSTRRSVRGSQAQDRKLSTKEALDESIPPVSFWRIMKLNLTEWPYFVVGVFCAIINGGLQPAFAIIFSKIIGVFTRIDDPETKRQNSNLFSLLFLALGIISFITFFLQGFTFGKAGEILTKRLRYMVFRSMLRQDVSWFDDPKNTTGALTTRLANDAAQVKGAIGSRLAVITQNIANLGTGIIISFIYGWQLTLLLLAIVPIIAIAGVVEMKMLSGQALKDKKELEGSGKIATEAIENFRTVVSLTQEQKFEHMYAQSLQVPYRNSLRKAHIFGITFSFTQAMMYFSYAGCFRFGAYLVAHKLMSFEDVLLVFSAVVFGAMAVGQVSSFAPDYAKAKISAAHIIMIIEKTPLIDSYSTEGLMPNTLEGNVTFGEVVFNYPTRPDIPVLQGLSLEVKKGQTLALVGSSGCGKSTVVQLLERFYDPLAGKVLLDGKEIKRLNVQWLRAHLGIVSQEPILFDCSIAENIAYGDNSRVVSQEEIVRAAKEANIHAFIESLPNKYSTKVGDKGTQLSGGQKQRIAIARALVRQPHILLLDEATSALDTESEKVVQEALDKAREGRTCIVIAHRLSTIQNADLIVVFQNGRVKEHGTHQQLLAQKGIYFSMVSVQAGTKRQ

O=c1cc(-c2ccccc2)[nH]c2nc(SCc3nc4ccccc4[nH]3)nn12
Ratio IC50 [1]: 4.05 | fold change (FC) (HEK-293T [2]): 1.14 | Ratio IC50 [3]: 0.91 | inhibition (INH) [4]: Dose-dependent effect | Ratio IC50 [5]: 1.01 | IC50 (SW-620 [6]): 86 µM | Activity (SW620/AD300 [7]): inactive | Activity (A549): Non-Toxic | fold change (FC) (HEK-293T [8]): 1.07 | inhibition (INH) [9]: Dose-dependent effect | fold change (FC) (HEK-293T [10]): 0.89 | IC50 (SW620/AD300 [11]): 106 µM | Activity (SGC-7901): Non-Toxic | Ratio IC50 [12]: 6.02 | Ratio IC50 [13]: 5.36 | Ratio IC50 [14]: 279.2 | Ratio IC50 [15]: 156.74 | Activity [16]: Active | fold change (FC) (HEK-293T [17]): 0.98 | fold change (FC) (SW-620 [18]): 1.1 | Activity (MGC-803): Non-Toxic | Ratio IC50 [19]: 125.8 | Ratio IC50 [20]: 4.1 | Ratio IC50 [21]: 4.32 | Ratio IC50 [22]: 27.8 | fold change (FC) (HEK-293T [23]): 0.83 | Ratio IC50 [24]: 1.05 | fold change (FC) (SW-620 [25]): 1.2 | Ratio IC50 [26]: 19.37 | Ratio IC50 [27]: 15.69 | Ratio IC50 [28]: 0.98 | Ratio IC50 [29]: 3.77 | inhibition (INH) [30]: Dose-dependent effect | Activity (ECa-109 cell line): Non-Toxic | fold change (FC) (HEK-293T [31]): 1.08 | fold change (FC) (SW-620 [32]): 1.14 | fold change (FC) (SW-620 [33]): 1.29 | fold change (FC) (SW-620 [34]): 0.81 | fold change (FC) (HEK-293T [35]): 1.04 | fold change (FC) (SW-620 [36]): 1.17 | Ratio IC50 [37]: 0.96 | Activity (SW620/AD300 [38]): inactive | inhibition (INH) [39]: Active | fold change (FC) (SW-620 [40]): 1.07 | fold change (FC) (HEK-293T [41]): 0.87 | fold change (FC) (HEK-293T [42]): 0.84 | Activity (TE-1): Non-Toxic | fold change (FC) (SW-620 [43]): 0.97 | fold change (FC) (SW-620 [44]): 1.18 | Ratio IC50 [45]: 0.91

Source: ChEMBL document CHEMBL4152352, “Discovery of a non-toxic [1,2,4]triazolo[1,5-a]pyrimidin-7-one (WS-10) that modulates ABCB1-mediated multidrug resistance (MDR)” (Bioorg Med Chem, 2018)
